# Results taken from patent publication US4571403A, “Antianginal medicated compound” (Institut Organicheskoi Khimii Imeni N.D. Zelinskogo …, priority 1984, dated 1986).
# Tested on: patients suffering from ischemic heart disease
# Assay: clinical test in patients with ischemic heart disease
# Assay type: in vivo, human patients
# Description: There were studied 84 patients aged 29 to 77 (46 men and 38 women) suffering from ischemic heart disease.
# The patients with ischemic heart disease were classified by stages: stage 1-18 persons, stage 2-40 persons, stage […] (according to L. I. Fogelson, 1972). In 46 patients there was the attendant hypertonic disease of the second stage.
# The remoteness of the disease was varied from 6 months to 22 years. The preparation was administered perorally in doses of 0.6-0.9 g 3-4 times a day. The daily dose is 1.8-3.6 g. The treatment course was 7 to 60 days; after a 5-7 days' interval the treatment was resumed depending on its efficiency so that the total course duration was up to 6 months. The effectiveness of the treatment was evaluated by the dynamics of complaints, clinic chart, objective data of pulse and arterial pressure, electrocardiographic and biochemical characteristics.
# [1] = patients with attendant hypertonic disease
smiles,measurement,setting,value
"CN1C(=O)N(C)C2C1N(C)C(=O)N2C (stereo not shown) [the preparation, 2,4,6,8-tetramethyl-2,4,6,8-tetraazobicyclo-/3,3,0/-octanedione-3,7]",potassium in plasma,"after treatment, before 3.82±0.16",3.45±0.08 mequiv/l
same,number of erythrocytes,"after treatment, before 4.6±0.3",5.3±0.3 mln in mm^3
same,content of total protein,"after treatment, before 7.73±0.1%",8.65±0.25%
same,content of lymphocytes,"after treatment, before 26.9±1.2%",31.0±2.8%
same,potassium in erythrocytes,"after treatment, before 65.7±5.7",80.2±5.2 mequiv/l
same,hemoglobin,"after treatment, before 82.7±2.6%",86.3±3.2%
same,cholesterol,"after treatment, before 294.0±16.4%",245±15.0 mg %
same,leucocytes,"after treatment, before 5,520±499","6,080±221 in mm^3"
same,content of prothrombin,during the treatment course,not changed
same,content of sodium in erythrocytes and plasma,"human, in vivo",not substantially changed
same,contraindications,"human, in vivo",No contraindications against the administration of the preparation have been revealed
same,patients with good therapeutic effect,"human, in vivo",77 % of the patients
same,remaining fractions of proteinogram,"human, in vivo",insignificant opposite-sign variations
same,side effects,"human, in vivo",Side effects are absent
same,day at which amelioration of the condition was observed,[1],2 to 5 days
same,pulse,[1],pulse normalization
same,minimal arterial pressure,"patients with attendant hypertonic disease, after treatment, before 102.2±1.2",89.7±4.0 mm Hg
same,maximum arterial pressure,"patients with attendant hypertonic disease, after treatment, before 180.8±3.9",161.4±3.8 mm Hg
same,electrogram,perorally 1.8-3.6 g daily,rhythm normalization
same,frequency and intensity of stenocardia attacks,perorally 1.8-3.6 g daily,reduced
same,metabolic processes,perorally 1.8-3.6 g daily,amelioration of metabolic processes
same,gamaglobulins,"proteinogram, after treatment, before 19.87±1.83%",22.54±2.31%
